Read-outs that look alike come from different tables or passages of the source. Square brackets hold non-standard residues; d marks the D form. Peptide text beside a SMILES is read from it. Bip = N[C@@H](Cc1ccc(-c2ccccc2)cc1)C(=O)O; αMePhe(2-F) = C[C@](N)(Cc1ccccc1F)C(=O)O; Phe(2-F) = N[C@@H](Cc1ccccc1F)C(=O)O; αMeF = C[C@](N)(Cc1ccccc1)C(=O)O; Aib = CC(C)(N)C(=O)O
Molecular target: T1, hGLP1 receptor (Homo sapiens, UniProt P43220)
T1 construct: expressed in transfected cells; host or cells: HEK (human embryonic kidney) cells co-expressing hGLP1 receptor and CRE-Luciferase
T1 sequence (P43220 24-463): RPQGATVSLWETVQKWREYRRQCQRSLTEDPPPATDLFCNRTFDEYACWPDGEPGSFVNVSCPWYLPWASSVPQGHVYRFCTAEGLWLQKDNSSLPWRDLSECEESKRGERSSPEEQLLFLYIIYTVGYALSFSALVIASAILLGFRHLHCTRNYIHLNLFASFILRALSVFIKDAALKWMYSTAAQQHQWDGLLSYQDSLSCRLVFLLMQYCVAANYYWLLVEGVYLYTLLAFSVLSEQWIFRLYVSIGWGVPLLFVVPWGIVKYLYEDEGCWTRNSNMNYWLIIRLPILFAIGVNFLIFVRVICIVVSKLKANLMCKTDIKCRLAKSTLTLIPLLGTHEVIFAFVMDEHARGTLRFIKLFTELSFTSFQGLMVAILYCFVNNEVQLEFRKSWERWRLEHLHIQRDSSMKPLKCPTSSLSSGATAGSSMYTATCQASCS
Test: GLP-1 receptor agonism assay (HTRF cAMP, HEK cells co-expressing hGLP1 receptor and CRE-Luciferase)
Assay type: cell-based
Details: for Emax: HEK293, Table 6 potency profile; for decreased potency by Aib substitution: Aib-scanning, versus parent analog RXL-101; for dpEC50 (contribution of Cα-methylation): dpEC50 = pEC50 (Aib) − pEC50 (Ala) − 0.97, Aib peptide versus the Ala peptide of the same line; for dpEC50 (contribution of Cα-methylation) / EC50 / pEC50: 0% HSA; for decreased potency (Aib/Ala comparison): versus respective parent analog; for EC50: read-out: cAMP EC50; for pEC50: Table 4, Aib-scan peptides; for decreased potency of Aib analog versus Ala analog: same position, Ala superior to Aib
Description: Human embryonic kidney cells (HEK) co-expressing the hGLP1 receptor and CRE-Luciferase construct were used to determine agonist potency in this assay. The cells were thawed briefly at 37 °C, transferred to a sterile tube, and re-suspended in complete media at 37 °C. Cells were centrifuged at 1000 rpm for 5 min and collected; the cells were then re-suspended in an assay buffer consisting of Dulbecco’s phosphate-buffered saline (DPBS, GIBCO) with 500 μM of the phosphodiesterase inhibitor 3-isobutyl-1-methylxanthine (IBMX). The assay medium had 0% serum albumin, as specified in Table 1, Table 2, Table 3 and Table 4. The optimal cell density was determined to be 1000 cells/well. Cells were added to wells in 384-well plates containing appropriate pre-prepared dilutions of compounds (test peptides or reference compound exendin-4), sealed, and incubated with CO2 for 30 min. Test peptide solutions were diluted from 10 mM stock solutions to be used in two separate runs (performed in triplicate) from a maximal concentration of 1.0 μM, with 11 concentrations tested for each peptide using serial 1:3 dilution from this maximal concentration. […] The agonist assay was a homogeneous time-resolved fluorescence (HTRF) assay (Cisbio). Following incubation of the cells for 30 min with test or reference peptides, 5 μL of the cAMP acceptor cAMP-d2, prepared previously as a working solution from frozen stock (1:20 dilution), was added to each well of the assay plate along with 5 μL of anti-cAMP antibody-cryptate working solution (diluted 1:20 from frozen stock). The wells were incubated for 1 h at room temperature, and fluorescence was then read at 665 and 615 nm with an Envision reader with a TRF laser. Data were saved and analyzed using Prism software (GraphPad). Concentration–response analysis was performed using 4-parameter logistic fits of the resulting data, and EC50 values were obtained for each test and reference compound.

[1] = Table 1, Phe6 modifications, average of two independent experiments in triplicate (RXL-3039 tested once)
[2] = Table 2, Ala-scanning, >1000 nM = out of range
[3] = Table 3, Aib-scanning, >1000 nM = out of range

Row | Compound | Emax [%] | EC50 [1] [nM] | further results
1 | C[C@@H](O)[C@H](NC(=O)CNC(=O)[C@H](CCC(=O)O)NC(=O)C(C)(C)NC(=O)[C@@H](N)Cc1c[nH]cn1)C(=O)N[C@@](C)(Cc1ccccc1)C(=O)N[C@H](C(=O)N[C@@H](CO)C(=O)N[C@@H](CC(=O)O)C(=O)N[C@@H](Cc1ccc(-c2ccccc2)cc1)C(=O)N[C@@H](Cc1ccc(-c2ccccc2)cc1)C(N)=O)[C@@H](C)O [RXL-3020, His-Aib-Glu-Gly-Thr-α-Me-Phe-Thr-Ser-Asp-Bip-Bip-NH2] (H-H[Aib]EGT[αMeF]TSD[Bip][Bip]-NH2) | 108 | – | –
2 | C[C@@H](O)[C@H](NC(=O)CNC(=O)[C@H](CCC(=O)O)NC(=O)C(C)(C)NC(=O)[C@@H](N)Cc1c[nH]cn1)C(=O)N[C@@](C)(Cc1ccccc1F)C(=O)N[C@H](C(=O)N[C@@H](CO)C(=O)N[C@@H](CC(=O)O)C(=O)NC(C)(C)C(=O)N[C@@H](Cc1ccc(-c2ccccc2)cc1)C(N)=O)[C@@H](C)O [RXL-3051, His-Aib-Glu-Gly-Thr-α-Me-Phe(2-F)-Thr-Ser-Asp-Aib-Bip-NH2] (H-H[Aib]EGT[αMePhe(2-F)]TSD[Aib][Bip]-NH2) | 26.8 | – | decreased potency by Aib substitution: ≥ 100 fold; dpEC50 (contribution of Cα-methylation): −1.34; decreased potency (Aib/Ala comparison): > 10,000 fold
3 | Cc1ccccc1C[C@H](NC(=O)[C@@H](NC(=O)CNC(=O)[C@H](CCC(=O)O)NC(=O)C(C)(C)NC(=O)[C@@H](N)Cc1c[nH]cn1)[C@@H](C)O)C(=O)N[C@H](C(=O)N[C@@H](CO)C(=O)N[C@@H](CC(=O)O)C(=O)N[C@@H](Cc1ccc(-c2ccccc2)cc1)C(=O)N[C@@H](Cc1ccc(-c2ccccc2)cc1)C(N)=O)[C@@H](C)O [RXL-3013, His-Aib-Glu-Gly-Thr-Phe(2-CH3)-Thr-Ser-Asp-Bip-Bip-NH2] | 98.6 | 2.1 | –
4 | C[C@@H](O)[C@H](NC(=O)CNC(=O)[C@H](CCC(=O)O)NC(=O)C(C)(C)NC(=O)[C@@H](N)Cc1c[nH]cn1)C(=O)N[C@@H](Cc1cc(F)c(F)c(F)c1)C(=O)N[C@H](C(=O)N[C@@H](CO)C(=O)N[C@@H](CC(=O)O)C(=O)N[C@@H](Cc1ccc(-c2ccccc2)cc1)C(=O)N[C@@H](Cc1ccc(-c2ccccc2)cc1)C(N)=O)[C@@H](C)O [RXL-3017, His-Aib-Glu-Gly-Thr-Phe(3,4,5-F)-Thr-Ser-Asp-Bip-Bip-NH2] | 113 | 7.2 | –
5 | C[C@@H](O)[C@H](NC(=O)CNC(=O)[C@H](CCC(=O)O)NC(=O)C(C)(C)NC(=O)[C@@H](N)Cc1c[nH]cn1)C(=O)N[C@@](C)(Cc1ccccc1F)C(=O)N[C@H](C(=O)N[C@@H](CO)C(=O)NC(C)(C)C(=O)N[C@@H](Cc1ccc(-c2ccccc2)cc1)C(=O)N[C@@H](Cc1ccc(-c2ccccc2)cc1)C(N)=O)[C@@H](C)O [RXL-3036, His-Aib-Glu-Gly-Thr-α-Me-Phe(2-F)-Thr-Ser-Aib-Bip-Bip-NH2] (H-H[Aib]EGT[αMePhe(2-F)]TS[Aib][Bip][Bip]-NH2) | 96.7 | – | decreased potency by Aib substitution: ≥ 100 fold; pEC50: 7.04; dpEC50 (contribution of Cα-methylation): −2.26; decreased potency of Aib analog versus Ala analog: about fivefold
6 | C[C@@H](O)[C@H](NC(=O)CNC(=O)[C@H](CCC(=O)O)NC(=O)C(C)(C)NC(=O)[C@@H](N)Cc1c[nH]cn1)C(=O)N[C@@H](Cc1ccccc1[N+](=O)[O-])C(=O)N[C@H](C(=O)N[C@@H](CO)C(=O)N[C@@H](CC(=O)O)C(=O)N[C@@H](Cc1ccc(-c2ccccc2)cc1)C(=O)N[C@@H](Cc1ccc(-c2ccccc2)cc1)C(N)=O)[C@@H](C)O [RXL-3014, His-Aib-Glu-Gly-Thr-Phe(2-NO2)-Thr-Ser-Asp-Bip-Bip-NH2] | 104 | 1.1 | –
7 | C[C@H](NC(=O)[C@H](CC(=O)O)NC(=O)[C@H](CO)NC(=O)[C@@H](NC(=O)[C@H](Cc1ccccc1F)NC(=O)[C@@H](NC(=O)CNC(=O)[C@H](CCC(=O)O)NC(=O)C(C)(C)NC(=O)[C@@H](N)Cc1c[nH]cn1)[C@@H](C)O)[C@@H](C)O)C(=O)N[C@@H](Cc1ccc(-c2ccccc2)cc1)C(N)=O [RXL-3008, His-Aib-Glu-Gly-Thr-Phe(2-F)-Thr-Ser-Asp-Ala-Bip-NH2] (H-H[Aib]EGT[Phe(2-F)]TSDA[Bip]-NH2) | 43.6 | – | decreased potency by Ala substitution in RXL-3000 (Ala-scanning, versus RXL-3000): > 1000 fold; EC50 [2]: > 1000 nM; decreased potency (Aib/Ala comparison): > 10,000 fold
8 | C[C@@H](O)[C@H](NC(=O)[C@](C)(Cc1ccccc1F)NC(=O)C(C)(C)NC(=O)CNC(=O)[C@H](CCC(=O)O)NC(=O)C(C)(C)NC(=O)[C@@H](N)Cc1c[nH]cn1)C(=O)N[C@@H](CO)C(=O)N[C@@H](CC(=O)O)C(=O)N[C@@H](Cc1ccc(-c2ccccc2)cc1)C(=O)N[C@@H](Cc1ccc(-c2ccccc2)cc1)C(N)=O [RXL-3033, His-Aib-Glu-Gly-Aib-α-Me-Phe(2-F)-Thr-Ser-Asp-Bip-Bip-NH2] (H-H[Aib]EG[Aib][αMePhe(2-F)]TSD[Bip][Bip]-NH2) | 120 | – | dpEC50 (contribution of Cα-methylation): −1.00
9 | C[C@@H](O)[C@H](NC(=O)CNC(=O)[C@H](CCC(=O)O)NC(=O)C(C)(C)NC(=O)[C@@H](N)Cc1c[nH]cn1)C(=O)N[C@@H](Cc1ccccc1F)C(=O)N[C@H](C(=O)N[C@@H](CO)C(=O)N[C@@H](CC(=O)O)C(=O)N[C@@H](Cc1ccc(-c2ccccc2)cc1)C(=O)N[C@@H](Cc1ccc(-c2ccccc2)cc1)C(N)=O)[C@@H](C)O [RXL-3000, His-Aib-Glu-Gly-Thr-Phe(2-F)-Thr-Ser-Asp-Bip-Bip-NH2] | 109 | 0.1 | EC50 [2]: 0.1 nM; EC50 [3]: 0.1 nM; GLP-1R agonist potency greater versus the parent peptide RXL-100 (versus RXL-100): approximately fivefold
10 | C[C@@H](O)[C@H](NC(=O)CNC(=O)[C@H](CCC(=O)O)NC(=O)C(C)(C)NC(=O)[C@@H](N)Cc1c[nH]cn1)C(=O)N[C@@](C)(Cc1ccccc1F)C(=O)NC(C)(C)C(=O)N[C@@H](CO)C(=O)N[C@@H](CC(=O)O)C(=O)N[C@@H](Cc1ccc(-c2ccccc2)cc1)C(=O)N[C@@H](Cc1ccc(-c2ccccc2)cc1)C(N)=O [RXL-3034, His-Aib-Glu-Gly-Thr-α-Me-Phe(2-F)-Aib-Ser-Asp-Bip-Bip-NH2] (H-H[Aib]EGT[αMePhe(2-F)][Aib]SD[Bip][Bip]-NH2) | 106 | – | decreased potency by Aib substitution: ≥ 100 fold; pEC50: 7.04; dpEC50 (contribution of Cα-methylation): −1.60; decreased potency of Aib analog versus Ala analog: about 10 fold
11 | C[C@@H](O)[C@H](NC(=O)CNC(=O)[C@H](CCC(=O)O)NC(=O)C(C)(C)NC(=O)[C@@H](N)Cc1c[nH]cn1)C(=O)N[C@@](C)(Cc1ccccc1F)C(=O)N[C@H](C(=O)N[C@@H](CO)C(=O)N[C@@H](CC(=O)O)C(=O)N[C@@H](Cc1ccc(-c2ccccc2)cc1)C(=O)N[C@@H](Cc1ccc(-c2ccccc2)cc1)C(N)=O)[C@@H](C)O [RXL-101, His-Aib-Glu-Gly-Thr-α-Me-Phe(2-F)-Thr-Ser-Asp-Bip-Bip-NH2] (H-H[Aib]EGT[αMePhe(2-F)]TSD[Bip][Bip]-NH2) | 117 | – | Cα-methylation pEC50 contribution for position 6 (pEC50 of RXL-101 minus pEC50 of RXL-3000): 0.97
12 | C[C@@H](O)[C@H](NC(=O)CNC(=O)[C@H](CCC(=O)O)NC(=O)C(C)(C)NC(=O)[C@@H](N)Cc1c[nH]cn1)C(=O)N[C@@H](Cc1ccccc1C(F)(F)F)C(=O)N[C@H](C(=O)N[C@@H](CO)C(=O)N[C@@H](CC(=O)O)C(=O)N[C@@H](Cc1ccc(-c2ccccc2)cc1)C(=O)N[C@@H](Cc1ccc(-c2ccccc2)cc1)C(N)=O)[C@@H](C)O [RXL-3012, His-Aib-Glu-Gly-Thr-Phe(2-CF3)-Thr-Ser-Asp-Bip-Bip-NH2] | 99.3 | 13.9 | –
13 | C[C@@H](O)[C@H](NC(=O)CNC(=O)[C@H](CCC(=O)O)NC(=O)C(C)(C)NC(=O)[C@@H](N)Cc1c[nH]cn1)C(=O)N[C@H](Cc1ccccc1)C(=O)N[C@H](C(=O)N[C@@H](CO)C(=O)N[C@@H](CC(=O)O)C(=O)N[C@@H](Cc1ccc(-c2ccccc2)cc1)C(=O)N[C@@H](Cc1ccc(-c2ccccc2)cc1)C(N)=O)[C@@H](C)O [RXL-3022, His-Aib-Glu-Gly-Thr-D-Phe-Thr-Ser-Asp-Bip-Bip-NH2] | 101 | 23.2 | –
14 | C[C@@H](O)[C@H](NC(=O)CNC(=O)[C@H](CCC(=O)O)NC(=O)C(C)(C)NC(=O)[C@@H](N)Cc1c[nH]cn1)C(=O)N[C@@H](Cc1ccccc1)C(=O)N[C@H](C(=O)N[C@@H](CO)C(=O)N[C@@H](CC(=O)O)C(=O)N[C@@H](Cc1ccc(-c2ccccc2)cc1)C(=O)N[C@@H](Cc1ccc(-c2ccccc2)cc1)C(N)=O)[C@@H](C)O [RXL-100, His-Aib-Glu-Gly-Thr-Phe-Thr-Ser-Asp-Bip-Bip-NH2] | 110 | 0.5 | EC50 [2]: 0.5 nM; EC50 [3]: 0.5 nM

— article PMC11721672, “Design, Structure–Activity Relationships, and Computational Modeling Studies of a Series of α-Helix Biased, Ultra-Short Glucagon-like Peptide-1 Receptor Agonists” (Molecules, 2024)
